Test results from US20200405687A1, “METHODS FOR THE TREATMENT OF INFECTION” (Corbus Pharmaceuticals, Inc., priority 2016, published 2020).

Test system: UV-killed Escherichia coli
Assay: Skin challenge (blister) model, intradermal UV-killed E. coli in healthy volunteers (Example 3)
Assay type: in vivo, humans
Method: The ability of administration of a pharmaceutical composition including ajulemic acid to treat infection was assayed in a skin challenge model. A self-resolving acute inflammatory response was triggered by the intradermal injection of UV-killed Escherichia coli into the forearm of healthy volunteers. […] This study was performed to determine whether ajulemic acid promotes the resolution of infection at the site of inflammation, thereby treating that infection.
Cells and exudates were harvested at several time points following injection of UV-killed E. coli by applying negative pressure over the inflamed site.
The study included four experimental groups (n=10 in each group): • 1) Placebo, twice daily for four days • 2) Ajulemic acid, 5 mg, twice daily for four days • 3) Ajulemic acid, 20 mg, twice daily for four days • 4) Prednisone, 15 mg daily for four days
The volunteer (healthy males, 18-50 years) were randomly allocated to one of the above three groups and orally administered the test drug for four consecutive days. On the morning of the fourth day (after intake of the first dose), experimental acute inflammation was elicited by infection with UV-killed E. coli. The drug and the placebo were provided as capsules.
UV killed E. coli (Strain: NCTC 10418, Source: Public Health England, UK) were prepared as follows. E. coli described were grown overnight in Luria Broth (Sigma) at 37° C. The next morning, the bacteria were washed twice in sterile PBS (2500 g, 20 min, 4° C.) and resuspended in a sterile petri dish.
Bacteria were then killed by exposure to an ultraviolet light (UV) source (302 nm, ChemiDoc, trans-UV mode; Bio-Rad laboratories) for 60 min and then washed again in sterile saline. Bacterial counts were determined by optical density (OD600=0.365 equates to […] E. coli/ml). UVKEc were resuspended in a volume of sterile saline to obtain the count of 1.5×10^8/ml, aliquoted into sterile eppendorf tubes and then frozen at −80° C. until used for injections.
After disinfecting and shaving the skin, 1.5×10^7 UVKEc in 100 μl saline were injected intradermally into a marked site on the volar aspect of each forearm. To characterize the treatment of infection using ajulemic acid, each forearm was allotted to one of the predefined time-points namely 4, 8, 14, 24, 48 or 72 hours (h). Thus the effects of intradermal injection of UVKEc were allowed to progress for the duration of the time-point after which a suction blister was raised over the marked injection site, and then aspirated immediately. In summary, volunteer had two injection sites, one on each forearm, and contributed to two time points. On a separate group of volunteers, blister was raised on the naïve skin and treated as the baseline time point. Study time-points were discussed with volunteers before consenting.
Laser Doppler Imager (moor LDI-HIR, Moor Instruments Ltd, Axminster, Devon, UK) was used to quantify the blood flow at the site of infection. At predefined time points after injection of UVKEc, the forearm was placed under the scanner at a fixed distance to scan a fixed area. The scanner emits a laser beam, a portion of which is scattered by red blood cells present at the inflamed area. The scattering causes a change in frequency of the reflected light which is then detected by a photo detector. The velocity and concentration of red blood cells at the site directly affect the Doppler frequency shifts and account for the signal strength measured in arbitrary perfusion units. […] The total blood flow (measured in perfusion units) was calculated as product of number of valid pixels above background signal (Cut-off=300 perfusion units) and the mean blood flow signal over the valid pixels 11, 12.
To obtain the exudate from the site of infection, a 10 mm diameter suction blister was induced directly over the site of injection. […]

## C[C@]12C=CC(=O)C=C1CC[C@@H]1[C@@H]2C(=O)C[C@@]2(C)[C@H]1CC[C@]2(O)C(=O)CO [prednisone, reference compound]
After UVKEc triggered acute inflammation, multiple time points
  rise in C-reactive protein (CRP) levels in serum: does appear to inhibit the rise in CRP
Ajulemic acid 5 mg or 20 mg BID, prednisone 15 mg daily, 4 h and 10 h, relative to placebo
  infiltration of neutrophils at the site of inflammation (blister exudate): decrease in the infiltration of neutrophils
Ajulemic acid 5 mg or 20 mg BID, prednisone 15 mg daily, 4 hr and 10 hr, limulus amoebocyte lysate test
  levels of endotoxin at the site of injection: appears to increase the levels of endotoxin
Prednisone 15 mg daily, four days
  bacterial clearance: does not increase bacterial clearance and may slow the rate of bacterial clearance
